Reference: the NIST ThermoML archive (doi:10.1016/j.jct.2004.11.009)
± gives the expanded uncertainty stated by the source.

What was measured:
[1] = 101.33 kPa, Liquid
[2] = xn = mol fraction of the nth substance listed; conditions: 101.33 kPa, Liquid, x2 = 0

`Cc1cccnc1` [3-methylpyridine] showed a mass density ([1]; 293.15 K) of 956 ± 0.6 kg/m3, a viscosity ([1]; 293.15 K) of 0.9459 ± 0.016 mPa·s and a mass density ([1]; 303.15 K) of 946.6 ± 0.6 kg/m3. For the same molecule, the viscosity ([1]; 303.15 K) was 0.8318 ± 0.014 mPa·s, the mass density ([1]; 313.15 K) was 937.7 ± 0.6 kg/m3 and the viscosity ([1]; 313.15 K) was 0.7352 ± 0.012 mPa·s. For the same molecule, the mass density ([1]; 323.15 K) was 928.3 ± 0.7 kg/m3, the viscosity ([1]; 323.15 K) was 0.6565 ± 0.011 mPa·s and the mass density ([1]; 333.15 K) was 919.3 ± 0.7 kg/m3. It also gave a viscosity ([1]; 333.15 K) of 0.5936 ± 0.01 mPa·s, a mass density ([1]; 343.15 K) of 910.3 ± 0.7 kg/m3 and a viscosity ([1]; 343.15 K) of 0.539 ± 0.0094 mPa·s.

With `O` [water] + Cc1cccnc1 the viscosity ([2]; 293.15 K) was 1.002 ± 0.017 mPa·s, the viscosity ([2]; 303.15 K) was 0.7977 ± 0.013 mPa·s and the viscosity ([2]; 313.15 K) was 0.6532 ± 0.011 mPa·s. For the same molecule, the mass density ([2]; 323.15 K) was 988 ± 0.7 kg/m3, the viscosity ([2]; 323.15 K) was 0.547 ± 0.0096 mPa·s and the mass density ([2]; 333.15 K) was 983.2 ± 0.8 kg/m3. It also gave a viscosity ([2]; 333.15 K) of 0.4665 ± 0.0083 mPa·s, a mass density ([2]; 343.15 K) of 977.8 ± 0.8 kg/m3 and a viscosity ([2]; 343.15 K) of 0.404 ± 0.0073 mPa·s.
